Reference: patent US20170165361A1, “TREATMENT OF LYSOSOMAL DISORDERS (ANTI-TNF THERAPY)” (Oxford University Innovation Limited, priority 2014, published 2017)
“And” between values parts separate entries of the source, which are not always exact repeats. Equal values may be shown once. “Also recorded” adds a separate entry of the source.

Columns and labels:
Format in all cases: in vivo, mouse
Npc1−/− mice [1] = assay: Survival of Npc1−/− mice (humane end point); conditions: for effect on survival / lifespan (in words): Enbrel 200 μg/animal s.c. twice a week, Humira 20 mg/kg three times a week, Remicade 6.25 mg/kg once a week
Method: BALB/c mice with a mutation in the NIH allele of the Niemann Pick type Cl gene (NPCnih) were bred as heterozygotes to produce Npc1−/− (BALB/c npcnih/nih) and control genotypes (Pentchev et al., 1980). Breeding and treatment of mice were conducted as described previously (Smith et al., 2009). The humane end point of mice was defined as a loss of 10% weight within a 24 hour time frame. All procedures were conducted according to Animals (Scientific Procedures) Act 1986 under a valid Home Office License.
(§1) Enbrel® (Amgen, USA) was administered via subcutaneous injection (200 μg/animal; Koca et al., 2008) in phosphate-buffered saline (PBS) twice a week starting at […] of age (n=7). Control group animals (n=7) were administered equal volumes of PBS subcutaneously. Humira® was administered 20 mg/kg three times a week (doses converted from human doses based on differential binding coefficients against murine and human TNF) (n=4) and Remicade® 6.25 mg/kg once a week (Deveci et al., 2008) (n=5).
Upon treatment with […] Enbrel® for twice a week starting at 7 weeks of age, Npc1^−/− mice were weighed weekly until humane end point to monitor any possible effects exerted by drug treatment.

[2] = Body weight of Npc1−/− mice, weighed weekly; conditions: for effect on body weight (in words): Enbrel 200 μg twice a week, Humira 20 mg/kg three times a week, Remicade 6.25 mg/kg once a week; for body weight relative to initial weight at week 7: p<0.010
Method: as §1
Body weights of individual mice were recorded on a weekly basis. Tremor and locomotor analysis of both treated and control groups were conducted as described by Smith et al. (2009). The procedures are briefly detailed as follows:
Upon treatment with 200 μg Enbrel® for twice a week starting at 7 weeks of age, Npc1^−/− mice were weighed weekly until humane end point to monitor any possible effects exerted by drug treatment.

Npc1−/− mice [3] = assay: Open field rearing, manual count over 5 minutes (rearing and centre rearing); conditions: for centre rearing count (no front-limb support) / rearing count (front limb support on side walls): 5 min; for centre rearing count (no front-limb support): Humira 20 mg/kg three times a week; for rearing activity vs. controls (in words): FIG. 4; for rearing count (front limb support on side walls): Remicade 6.25 mg/kg once a week
Method: as §1
(§2) Spontaneous activity of each mouse was recorded weekly using both an automated activity monitor (AmLogger; Linton Instrumentation, UK) and manual counting (NPC mice have a jumping phenotype in late stages of disease that can be scored as rears in the automated system so manual counts were included for this reason). The activity monitor comprises an array of infrared beams to determine the activity and motility of the subject animal. After 5-minute acclimatization in the room, each mouse was placed in the ‘open-field’ (a plasticbox measuring 45×25×12 cm) with home cage bedding to be recorded for 5 minutes. A similar setup was used for the open field rearing study, where the number of times the mouse reared on its hind legs (either against the cage wall “rearing” or without support “centre rearing”) was counted manually for 5 minutes.
Activity levels of the mice (Npc1^−/−) were recorded and classified by either “rearing” (FIG. 4A; rearing sustained by front limb support on side walls of the open-field box) or “centre rearing” (FIG. 4B; rearing with no front-limb support). […] In particular, rearing activity was maintained in Enbrel®-treated mice until 10 weeks whilst mice in the control group were no longer able to rear without front limb support (1.71 rears vs. 0.00 rears; p=0.01).

Npc1−/− mice [4] = assay: Locomotor activity, AmLogger automated activity monitor; conditions: Enbrel 200 μg twice a week
Method: as §1, §2

Npc1−/− mice [5] = assay: Gait analysis, CatWalk single paw parameters; conditions: Enbrel treatment, FIG. 7
Method: as §1
The CatWalk™ system (Noldus Information Technology, the Netherlands) was used for monitoring changes in movement patterns as indicative of any motor complications and to assess any gait improvement in response to treatment. Animals were subjected to CatWalk™ analysis biweekly, where a minimum of three ‘runs’ were collected per animal. The data collected were subsequently examined by CatWalk™ XT 10.0 software to produce a total of 177 inter-paw and intra-paw comparison parameters.
For this reason, it can be assumed that single paw parameters would reveal more sensitive indications of treatment benefits in the short time frame allowed by this acute disease model.

[6] = 9 weeks, mean±SEM, Enbrel 200 μg twice a week, control 0.429±0.30
[7] = 10 weeks, Enbrel 200 μg twice a week, control 0.00

Row | Substance | effect on survival / lifespan (in words) (Npc1−/− mice [1]) | effect on body weight (in words) [2] | centre rearing count (no front-limb support) (Npc1−/− mice [3]; 8 weeks, mean±SEM, vs. 2.00±1.35, p=0.033) | centre rearing count (no front-limb support) (Npc1−/− mice [3]; [6]) | centre rearing count (no front-limb support) (Npc1−/− mice [3]; [7]) | centre rearing vs. controls and other treatments (in words) (Npc1−/− mice [3]; open field, FIG. 4B) | lifespan (Npc1−/− mice [1]; Enbrel 200 μg/animal twice a week starting at 7 weeks of age, vs. 11.72±0.59 weeks, p=0.4840) | body weight relative to initial weight at 7 weeks ([2]; 200 μg Enbrel twice a week, time point not stated, vs. 87.46%, p=0.7270) | rearing activity vs. controls (in words) (Npc1−/− mice [3]; open field) | time spent in rearing (Npc1−/− mice [4]; 8 weeks, 5 min recording, vs. 3.29±1.775, p=0.0447) | time spent in an active state (Npc1−/− mice [4]; 9 weeks, 5 min recording, vs. 143.43±17.625, p=0.0497) | activity parameters vs. vehicle treated control (in words) (Npc1−/− mice [4]; FIG. 6) | single paw gait parameters (in words) (Npc1−/− mice [5]) | body weight relative to initial weight at week 7 ([2]; week 8, Remicade 6.25 mg/kg once a week, vs. 101.31%) | body weight relative to initial weight at week 7 ([2]; week 9, Remicade 6.25 mg/kg once a week, vs. 97.16%) | rearing count (front limb support on side walls) (Npc1−/− mice [3]; 8 weeks, mean±SEM, vs. 2.86±1.03, p=0.034) | rearing count (front limb support on side walls) (Npc1−/− mice [3]; 9 weeks, mean±SEM, vs. 2.00±2.52, p=0.039)
1 | Adalimumab [Humira] | Neither did Humira® or Remicade® impact mice survival | did not impact mice weight | 10.00±3.58 rears | 8.25±2.84 rears | 0.00 rears | more effective amongst the other treatments starting from 8 weeks; also recorded: sustained rearing activity beyond all control groups at later time points |  |  |  |  |  |  |  |  |  |  | 
2 | Etanercept [Enbrel] | did not cause any significant difference in lifespan | did not cause any significant difference in body weights |  | 1.71±0.61 rears | 1.71 rears and 1.71±0.57 rears |  | 11.26±0.09 weeks | 89.03% | displayed a higher level of rearing activity than control mice | 16.86 ± 5.79 s | 208.14 ± 23.85 s | displayed higher activity levels; also recorded: induced higher levels of activity parameters | beneficial effects |  |  |  | 
3 | Infliximab [Remicade] | Neither did Humira® or Remicade® impact mice survival | caused significant weight loss at weeks 8 and 9 |  |  |  |  |  |  | sustained level of rearing activity starting from 7 weeks, higher than the two control groups (untreated and s.c. injected) and maintained up to 12 weeks |  |  |  |  | 89.11% | 80.84% | 7.80±1.71 rears | 7.20±2.27 rears
